What was measured:
[1] = Antiproliferative activity against human T47D cells after 96 hrs by SRB assay; format: functional, cell-based
[2] = Antiproliferative activity against human MDA-MB-231 cells after 96 hrs by SRB assay; format: functional, cell-based; settings: MDA-MB-231, 96 h
[3] = Antiproliferative activity against human MCF7 cells after 96 hrs by SRB assay; format: functional, cell-based; settings: MCF7, 96 h
MCF7 = assay: Selectivity index, ratio of IC50 for HAF cells to IC50 for human MCF7 cells; format: functional
Mus musculus [4] = assay: Toxicity in nude mouse xenografted with human T47D cells assessed as organ damage at 5 mg/kg/day, ip administered daily for 18 days; format: organism-based; settings: in vivo, 432 h
[5] = Antitumor activity against human T47D cells xenografted in nude mouse assessed as tumor volume at 5 mg/kg/day, ip administered daily for 18 days measured every 3 days during compound dosing (reference value: 1220 +/- 127 mm3); format: functional
[6] = Antiproliferative activity against HAF cells after 96 hrs by SRB assay; format: cell-based; settings: Homo sapiens
[7] = Antiproliferative activity against human HL60 cells after 96 hrs by SRB assay; format: functional, cell-based; settings: HL-60, 96 h
Mus musculus [8] = assay: Toxicity in nude mouse xenografted with human T47D cells assessed as diarrhoea at 5 mg/kg/day, ip administered daily for 18 days; format: organism-based; settings: in vivo, 432 h
[9] = Antiproliferative activity against human PC3 cells after 96 hrs by SRB assay; format: functional, cell-based; settings: PC-3, 96 h
[10] = Antitumor activity against human T47D cells xenografted in nude mouse assessed as tumor weight at 5 mg/kg/day, ip administered daily for 18 days measured every 3 days during compound dosing (reference value: 882 +/- 149 mg); format: functional
[11] = Selectivity index, ratio of IC50 for HAF cells to IC50 for human HT-29 cells; format: functional
T47D [12] = assay: Induction of apoptosis in human T47D cells assessed as late apoptotic cells at 10 uM after 48 hrs by Annexin V-FITC/propidium iodide staining based flow cytometry (reference value: 2.42 %); format: functional
T47D [13] = assay: Induction of apoptosis in human T47D cells assessed as late apoptotic cells at 20 uM after 48 hrs by Annexin V-FITC/propidium iodide staining based flow cytometry (reference value: 2.42 %); format: functional
T47D [14] = assay: Induction of apoptosis in human T47D cells assessed as early apoptotic cells at 20 uM after 48 hrs by Annexin V-FITC/propidium iodide staining based flow cytometry (reference value: 1.75 %); format: functional
T47D [15] = assay: Induction of apoptosis in human T47D cells assessed as early apoptotic cells at 10 uM after 48 hrs by Annexin V-FITC/propidium iodide staining based flow cytometry (reference value: 1.75 %); format: functional
PC-3 = assay: Selectivity index, ratio of IC50 for HAF cells to IC50 for human PC3 cells; format: functional
T47D [16] = assay: Selectivity index, ratio of IC50 for HAF cells to IC50 for human T47D cells; format: functional
[17] = Selectivity index, ratio of IC50 for HAF cells to IC50 for human MDA-MB-231 cells; format: functional
Mus musculus [18] = assay: Acute toxicity in nude mouse xenografted with human T47D cells assessed as mortality at 5 to 40 mg/kg/day, ip administered daily for 18 days measured on day 18 post last dose; format: organism-based; settings: in vivo, 432 h
T47D [19] = assay: (§1) Antimigratory activity in human T47D cells assessed as inhibition of cell migration after 12 hrs by crystal violet staining based transwell migration assay; format: functional
[20] = as §1; format: functional
[21] = Antiproliferative activity against human HT-29 cells after 96 hrs by SRB assay; format: functional, cell-based; settings: HT-29, 96 h
[22] = Antiproliferative activity against human HCT116 cells after 96 hrs by SRB assay; format: functional, cell-based; settings: HCT-116, 96 h
T47D [23] = assay: Induction of apoptosis in human T47D cells assessed as late apoptotic cells at 5 uM after 48 hrs by Annexin V-FITC/propidium iodide staining based flow cytometry (reference value: 2.42 %); format: functional
T47D [24] = assay: (§2) Inhibition of colony formation in human T47D cells after 7 days by crystal violet staining based assay; format: functional, cell-based
[25] = as §2; format: functional, cell-based; settings: 168 h
HCT-116 = assay: Selectivity index, ratio of IC50 for HAF cells to IC50 for human HCT116 cells; format: functional
[26] = Antiproliferative activity against human DU145 cells after 96 hrs by SRB assay; format: functional, cell-based; settings: DU-145, 96 h
T47D [27] = assay: Induction of apoptosis in human T47D cells assessed as early apoptotic cells at 5 uM after 48 hrs by Annexin V-FITC/propidium iodide staining based flow cytometry (reference value: 1.75 %); format: functional
HL-60 = assay: Selectivity index, ratio of IC50 for HAF cells to IC50 for human HL60 cells; format: functional
Mus musculus [28] = assay: Toxicity in nude mouse xenografted with human T47D cells assessed as body weight loss at 5 mg/kg/day, ip administered daily for 18 days measured every 3 days during compound dosing; format: organism-based; settings: in vivo
DU-145 = assay: Selectivity index, ratio of IC50 for HAF cells to IC50 for human DU145 cells; format: functional
T47D [29] = assay: Induction of apoptosis in human T47D cells assessed as early apoptotic cells at 20 uM after 48 hrs by Annexin V-FITC/propidium iodide staining based flow cytometry (reference value: 3.79 %); format: functional
T47D [30] = assay: Induction of apoptosis in human T47D cells assessed as late apoptotic cells at 40 uM after 48 hrs by Annexin V-FITC/propidium iodide staining based flow cytometry (reference value: 3.04 %); format: functional
T47D [31] = assay: Induction of apoptosis in human T47D cells assessed as late apoptotic cells at 80 uM after 48 hrs by Annexin V-FITC/propidium iodide staining based flow cytometry (reference value: 3.04 %); format: functional
T47D [32] = assay: Induction of apoptosis in human T47D cells assessed as early apoptotic cells at 80 uM after 48 hrs by Annexin V-FITC/propidium iodide staining based flow cytometry (reference value: 3.79 %); format: functional
T47D [33] = assay: Induction of apoptosis in human T47D cells assessed as early apoptotic cells at 40 uM after 48 hrs by Annexin V-FITC/propidium iodide staining based flow cytometry (reference value: 3.79 %); format: functional
T47D [34] = assay: Induction of apoptosis in human T47D cells assessed as late apoptotic cells at 20 uM after 48 hrs by Annexin V-FITC/propidium iodide staining based flow cytometry (reference value: 3.04 %); format: functional

Compound: COC(=O)c1ccccc1NC(=O)c1cc2c(cc1OC)[C@@]1(C)CC[C@H](O)C(C)(C)[C@@H]1CC2
- IC50 [1]: 1.22 µM
- IC50 [2]: 7.98 µM
- IC50 [3]: 4.31 µM

Compound: CC1(C)[C@@H](O)CC[C@]2(C)c3cc(O)c(C(=O)Nc4ccc(F)cc4)cc3CC[C@@H]12
- IC50 [1]: 2.55 µM
- IC50 [2]: 9.25 µM
- IC50 [3]: 6.05 µM

Compound: COc1cc2c(cc1C(=O)O)CC[C@H]1C(C)(C)C(O)CC[C@]21C (single isomer, unassigned)
- IC50 [1]: > 25 µM
- IC50 [2]: > 25 µM
- IC50 [3]: > 25 µM

Compound: COc1cc2c(cc1C(=O)Nc1ccc(F)cc1)CC[C@H]1C(C)(C)[C@@H](O)CC[C@]21C
- IC50 [1]: 0.04 µM
- IC50 [2]: 2.4 µM
- IC50 [3]: 0.82 µM

Compound: COc1cc([C@@H]2c3cc4c(cc3[C@H](O)[C@H]3COC(=O)[C@H]23)OCO4)cc(OC)c1OC [PODOFILOX]
- Ratio IC50 (MCF7): 0.8
- Activity (Mus musculus [4]): Toxic
- Activity [5]: 407 mm3
- IC50 [6]: 0.09 µM
- IC50 [7]: 0.48 µM
- Activity (Mus musculus [8]): Toxic
- IC50 [9]: 0.05 µM
- Activity [10]: 200 mg
- Ratio IC50 [11]: 0.8
- Activity (T47D [12]): 6.98%
- Activity (T47D [13]): 7.21%
- Activity (T47D [14]): 11.86%
- Activity (T47D [15]): 7.47%
- Ratio IC50 (PC-3): 0.8
- Ratio IC50 (T47D [16]): 0.8
- IC50 [1]: 0.25 µM
- Ratio IC50 [17]: 0.8
- Activity (Mus musculus [18]): Toxic
- IC50 [2]: 0.12 µM
- Activity (T47D [19]): Dose-dependent effect
- EC50 [20]: 8.98 µM
- IC50 [21]: 0.02 µM
- IC50 [22]: 0.02 µM
- Activity (T47D [23]): 4.45%
- Activity (T47D [24]): Dose-dependent effect
- EC50 [25]: 0.00297 µM
- Ratio IC50 (HCT-116): 0.8
- IC50 [26]: 0.01 µM
- Activity (T47D [27]): 4.97%
- Ratio IC50 (HL-60): 0.8
- Activity (Mus musculus [28]): Toxic
- Ratio IC50 (DU-145): 0.8
- IC50 [3]: 0.01 µM

Compound: COc1ccc(NC(=O)c2cc3c(cc2OC)[C@@]2(C)CC[C@H](O)C(C)(C)[C@@H]2CC3)cc1
- Ratio IC50 (MCF7): 10
- IC50 [6]: 4.01 µM
- IC50 [7]: 0.41 µM
- IC50 [9]: 0.5 µM
- Ratio IC50 [11]: 10
- Ratio IC50 (PC-3): 10
- Ratio IC50 (T47D [16]): 10
- IC50 [1]: 0.03 µM
- Ratio IC50 [17]: 10
- IC50 [2]: 0.41 µM
- IC50 [21]: 0.52 µM
- IC50 [22]: 0.51 µM
- Ratio IC50 (HCT-116): 10
- IC50 [26]: 0.54 µM
- Ratio IC50 (HL-60): 10
- Ratio IC50 (DU-145): 10
- IC50 [3]: 0.28 µM

Compound: COc1cc2c(cc1C(=O)Nc1ccccc1)CC[C@H]1C(C)(C)[C@@H](O)CC[C@]21C
- Ratio IC50 (MCF7): 1.9
- IC50 [6]: 9.46 µM
- Activity (T47D [29]): 2.25%
- IC50 [7]: 12.4 µM
- Activity (T47D [30]): 6.97%
- IC50 [9]: 2.51 µM
- Ratio IC50 [11]: 1.9
- Ratio IC50 (PC-3): 1.9
- Ratio IC50 (T47D [16]): 1.9
- IC50 [1]: 0.84 µM
- Ratio IC50 [17]: 1.9
- IC50 [2]: 4.49 µM
- Activity (T47D [19]): Dose-dependent effect
- EC50 [20]: 37.7 µM
- IC50 [21]: 2.45 µM
- IC50 [22]: 1.54 µM
- Activity (T47D [31]): 7.72%
- Activity (T47D [24]): Dose-dependent effect
- EC50 [25]: 0.987 µM
- Activity (T47D [32]): 4.7%
- Ratio IC50 (HCT-116): 1.9
- IC50 [26]: 10.7 µM
- Ratio IC50 (HL-60): 1.9
- Activity (T47D [33]): 3.33%
- Activity (T47D [34]): 3.54%
- Ratio IC50 (DU-145): 1.9
- IC50 [3]: 4.8 µM

Compound: COc1cc2c(cc1C(=O)Nc1cccc(Cl)c1)CC[C@H]1C(C)(C)[C@@H](O)CC[C@]21C
- IC50 [1]: 0.26 µM
- IC50 [2]: 0.99 µM
- IC50 [3]: 2.23 µM

Compound: CCNC(=O)c1cc2c(cc1OC)[C@@]1(C)CC[C@H](O)C(C)(C)[C@@H]1CC2
- IC50 [1]: > 25 µM
- IC50 [2]: 7.65 µM
- IC50 [3]: > 25 µM

Compound: COc1cc2c(cc1C(=O)Nc1ccc(N)cc1)CC[C@H]1C(C)(C)[C@@H](O)CC[C@]21C
- IC50 [1]: 0.23 µM
- IC50 [2]: 3.09 µM
- IC50 [3]: 5.21 µM

Compound: COc1cc2c(cc1C(=O)Nc1ccccc1Cl)CC[C@H]1C(C)(C)[C@@H](O)CC[C@]21C
- IC50 [1]: 0.82 µM
- IC50 [2]: 3.69 µM
- IC50 [3]: 6.55 µM

Compound: COC(=O)c1ccc(NC(=O)c2cc3c(cc2OC)[C@@]2(C)CC[C@H](O)C(C)(C)[C@@H]2CC3)cc1
- IC50 [1]: 2.7 µM
- IC50 [2]: 6.81 µM
- IC50 [3]: 4.61 µM

Compound: COc1cc2c(cc1C(=O)Nc1ccccc1N)CC[C@H]1C(C)(C)[C@@H](O)CC[C@]21C
- IC50 [1]: 0.55 µM
- IC50 [2]: 4.31 µM
- IC50 [3]: 11.2 µM

From ChEMBL document CHEMBL3856189, “Synthesis of novel diterpenoid analogs with in-vivo antitumor activity” (Eur J Med Chem, 2016)
